Columns and labels:
retinal blood vessels = experiment: Pharmacological Test 1: retinal vasodilatory action (retinal vascular diameter from fundus images) after intravitreal administration to rabbits; assay type: in vivo, rabbit; settings: for Base-Corrected Retinal Vascular Diameter Change Rate (%) 1 Hour After Administration / Base-Corrected Retinal Vascular Diameter Change Rate (%) 2 Hours After Administration / Base-Corrected Retinal Vascular Diameter Change Rate (%) 6 Hours After Administration / Base-Corrected Retinal Vascular Diameter Change Rate (%) 24 Hours After Administration: 20 μL intravitreal single injection, pigmented rabbits
Procedure: In order to find a new medicinal use of omidenepag, an ester thereof, or a salt thereof, the retinal vasodilatory action in the case of administering omidenepag to rabbits was examined. Omidenepag at 4.01 mg was dissolved in dimethyl sulfoxide to a total volume of 129 μL. Of the total volume, 10 μL was added and dissolved into physiological saline, and an appropriate amount of sodium hydroxide solution was added to adjust the pH of the formulation to 6.2. Thereafter, physiological saline was further added to a total volume of 10 mL to obtain omidenepag sample 1 (containing 0.00311% (w/v) (31.1 μg/mL) of omidenepag). In addition, the base A was added to 0.1 mL of omidenepag sample 1 to a total volume of 10 mL, and omidenepag sample 2 was obtained (containing 0.0000311% (w/v) (0.311 μg/mL) of omidenepag). CP-544326 (EP2 agonist) at 5.98 mg was dissolved in dimethyl sulfoxide to a total volume of 192 μL. Of the total volume, 10 μL was added and dissolved into physiological saline, and sodium hydroxide solution was added to adjust the pH of the formulation to 6.5. Thereafter, physiological saline was further added to a total volume of 10 mL to obtain CP-544326 sample 1 (containing 0.00311% (w/v) (31.1 μg/mL) of CP-544326). In addition, the base A was added to 0.1 mL of CP-544326 sample 1 to a total volume of 10 mL, and CP-544326 sample 2 was obtained (containing 0.0000311% (w/v) (0.311 μg/mL) of CP-544326). The base A, omidenepag samples 1 and 2, and CP-544326 samples 1 and 2 as test compound solutions, each at 20 μL, were administered intravitreally (injection, single time) to examine the change in retinal vascular diameter. In addition, pigmented rabbits (strain: Dutch, sex: male, three animals per group) were used as experimental animals. 1) After holding the above experimental animals, one drop (about 0.03 mL) of a 0.4% tropicamide ophthalmic solution (trade name: Mydrin-M ophthalmic solution 0.4%) was instilled into the retinal vascular diameter measurement eye to fully dilate the pupil. Thereafter, fundus images of the measurement eyes were captured, and the retinal vascular diameters and the like immediately before administration were measured from the obtained fundus images. 2) One drop (about 0.03 mL) of a 0.4% oxybuprocaine hydrochloride ophthalmic solution (trade name: Benoxil ophthalmic solution 0.4%) was instilled into the retinal vascular diameter measurement eye of each experimental animal for local anesthesia. Thereafter, a microsyringe connected with a 30 G injection needle was used to administer 20 μL of each test compound solution into the vitreous body. 3) At 1 hour, 2 hours, 6 hours, and 24 hours after administration of each test compound solution, fundus images of the retinal vascular diameter measuring eyes were captured, and the retinal vascular diameters and the like were measured from the obtained fundus images. (a) The fundus images captured immediately before the administration, 1 hour, 2 hours, 6 hours, and 24 hours after the administration were used to measure, as the vascular diameters, (i) the vascular diameter of the retinal artery on the nose side, (ii) the vascular diameter of the retinal artery on the ear side, and (iii) the optic nerve head diameter (longitudinal diameter passing through the center of the optic nerve head). (b) The average value of (i) the vascular diameter of the retinal artery on the nose side and (ii) the vascular diameter of the retinal artery on the ear side measured from the fundus images for each time period was divided by (iii) the optic nerve head diameter to calculate the corrected retinal vascular diameter. […]

[1] = system: optic nerve head tissue blood flow; experiment: Pharmacological Test 3: optic nerve head tissue blood flow (laser speckle flowgraphy) after intravitreal administration to rabbits; assay type: in vivo, rabbit
Procedure: In order to find anew medicinal use of omidenepag, an ester thereof, or a salt thereof, the action of increasing tissue blood flow in the optic nerve head in the case of administering omidenepag to rabbits was examined.
Omidenepag at 3.99 to 4.03 mg was dissolved in dimethyl sulfoxide to a total volume of 128 to 130 μL. Of the total volume, 10 μL was added and dissolved into physiological saline, and an appropriate amount of sodium hydroxide solution was added to adjust the pH of the formulation to 6.3 to 7.2. Thereafter, physiological saline was further added to a total volume of 10 mL to obtain omidenepag sample 3 (containing 0.00311% (w/v) (31.1 μg/mL) of omidenepag).
The base C and omidenepag sample 3 as test compound solutions, each at 20 μL, were administered intravitreally (injection, single time) to examine the change in optic nerve head tissue blood flow. In addition, pigmented rabbits (strain: Dutch, sex: male, three animals per group) were used as experimental animals. […]
3) At 1 hour and 2 hours after administration of each test compound solution, the optic nerve head tissue blood flow of the optic nerve head tissue blood flow measurement eye was measured.
(a) The ratio of the optic nerve head tissue blood flow after passage of each of the time periods of 1 hour and 2 hours after administration to the optic nerve head tissue blood flow immediately before administration (optic nerve head tissue blood flow change rate (%)) was calculated. […]
(b) For each time period after administration, the difference (base-corrected optic nerve head tissue blood flow change rate (%)) was calculated between the optic nerve head tissue blood flow change rate (%) of the group administered with the base C simultaneously carried out and the optic nerve head tissue blood flow change rate (%) of the group administered with omidenepag sample 3. […]

Row | SMILES | Base-Corrected Retinal Vascular Diameter Change Rate (%) 1 Hour After Administration (retinal blood vessels; 0.0000311% (w/v) (0.311 μg/mL)) | Base-Corrected Retinal Vascular Diameter Change Rate (%) 2 Hours After Administration (retinal blood vessels; 0.0000311% (w/v) (0.311 μg/mL)) | Base-Corrected Retinal Vascular Diameter Change Rate (%) 6 Hours After Administration (retinal blood vessels; 0.0000311% (w/v) (0.311 μg/mL)) | Base-Corrected Retinal Vascular Diameter Change Rate (%) 24 Hours After Administration (retinal blood vessels; 0.0000311% (w/v) (0.311 μg/mL)) | Base-Corrected Retinal Vascular Diameter Change Rate (%) 1 Hour After Administration (retinal blood vessels; 0.00311% (w/v) (31.1 μg/mL)) | Base-Corrected Retinal Vascular Diameter Change Rate (%) 2 Hours After Administration (retinal blood vessels; 0.00311% (w/v) (31.1 μg/mL)) | Base-Corrected Retinal Vascular Diameter Change Rate (%) 6 Hours After Administration (retinal blood vessels; 0.00311% (w/v) (31.1 μg/mL)) | Base-Corrected Retinal Vascular Diameter Change Rate (%) 24 Hours After Administration (retinal blood vessels; 0.00311% (w/v) (31.1 μg/mL)) | Base-Corrected Optic Nerve Head Tissue Blood Flow Change Rate (%) 1 Hour After Administration ([1]; 0.00311% (w/v) (31.1 μg/mL), 20 μL intravitreal single injection, pigmented rabbits, 1 hour) | Base-Corrected Optic Nerve Head Tissue Blood Flow Change Rate (%) 2 Hours After Administration ([1]; 0.00311% (w/v) (31.1 μg/mL), 20 μL intravitreal single injection, pigmented rabbits, 2 hours) | blood flow increasing action, optic nerve head (in words) ([1]; intravitreal administration, rabbits) | retinal vasodilatory action compared with CP-544326 (in words) (retinal blood vessels; at the same concentration, intravitreal, rabbits)
1 | O=C(O)COc1cccc(CN(Cc2ccc(-n3cccn3)cc2)S(=O)(=O)c2cccnc2)c1 [CP-544326, reference compound] | 14.8% | 9.0% | 0.8% | 3.5% | 48.4% | 57.5% | 72.2% | 3.7% |  |  |  | 
2 | O=C(O)CNc1cccc(CN(Cc2ccc(-n3cccn3)cc2)S(=O)(=O)c2cccnc2)n1 [Omidenepag, (6-{[4-(pyrazol-1-yl)benzyl](pyridin-3-ylsulfonyl)aminomethyl}pyridin-2-ylamino)acetic acid] | 35.8% | 35.4% | 22.3% | 2.9% | 81.2% | 71.9% | 88.1% | 11.8% | 343.6% | 327.8% | significantly strong blood flow increasing action | significantly stronger retinal vasodilatory action

From patent US10940144B2, “Drug containing pyridylaminoacetic acid compound” (priority 2017, dated 2021)
